Experimental data: PubChem BioAssay AID248 (DTP/NCI, 2004)
Several values for one entry are separate records, joined by “and”; a condition that tells them apart may be missing. Identical values can stand only once. Toxic doses and inconclusive results are not listed. Rule as the data show it: active = T/C of 150% or more; inactive = T/C below 125%.

System: L1210 leukemia ip in BDF1 mice, survival T/C
Assay: NCI In Vivo Anticancer Drug Screen. Data for tumor model L1210 Leukemia (intraperitoneal) in B6D2F1 (BDF1) mice
Conditions: endpoint: mean survival time, higher = longer survival
Procedure, shortened: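 Transplantable tumor model; survival measured in treated vs vehicle control mice. Value = treated/control.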

[1] = dose: 30.0 mg/kg/injection, schedule: Q01DX015 (ip), vehicle: carboxymethylcellulose (CMC)
[2] = dose: 60.0 mg/kg/injection, schedule: Q01DX015 (ip), vehicle: carboxymethylcellulose (CMC)
[3] = dose: 100.0 mg/kg/injection, schedule: Q01DX001 (ip), vehicle: acetone
[4] = dose: 120.0 mg/kg/injection, schedule: Q01DX015 (ip), vehicle: carboxymethylcellulose (CMC)
[5] = dose: 200.0 mg/kg/injection, schedule: Q01DX001 (ip), vehicle: acetone
[6] = dose: 400.0 mg/kg/injection, schedule: Q01DX001 (ip), vehicle: acetone
[7] = dose: 100.0 mg/kg/injection, schedule: Q01DX009 (ip), vehicle: saline with Tween-80
[8] = dose: 100.0 mg/kg/injection, schedule: Q04DX003 (ip), vehicle: saline
[9] = dose: 200.0 mg/kg/injection, schedule: Q01DX009 (ip), vehicle: saline with Tween-80
[10] = dose: 200.0 mg/kg/injection, schedule: Q04DX003 (ip), vehicle: saline
[11] = dose: 400.0 mg/kg/injection, schedule: Q04DX003 (ip), vehicle: saline
[12] = dose: 100.0 mg/kg/injection, schedule: Q01DX009 (ip), vehicle: Klucel (hydroxypropylcellulose) (HPC)
[13] = dose: 100.0 mg/kg/injection, schedule: Q04DX003 (ip), vehicle: Klucel (hydroxypropylcellulose) (HPC)
[14] = dose: 200.0 mg/kg/injection, schedule: Q04DX003 (ip), vehicle: Klucel (hydroxypropylcellulose) (HPC)
[15] = dose: 400.0 mg/kg/injection, schedule: Q01DX009 (ip), vehicle: Klucel (hydroxypropylcellulose) (HPC)
[16] = dose: 400.0 mg/kg/injection, schedule: Q04DX003 (ip), vehicle: Klucel (hydroxypropylcellulose) (HPC)
[17] = dose: 400.0 mg/kg/injection, schedule: Q01DX009 (ip), vehicle: saline with Tween-80
[18] = dose: 100.0 mg/kg/injection, schedule: Q04DX003 (ip), vehicle: saline with Tween-80
[19] = dose: 200.0 mg/kg/injection, schedule: Q04DX003 (ip), vehicle: saline with Tween-80
[20] = dose: 400.0 mg/kg/injection, schedule: Q04DX003 (ip), vehicle: saline with Tween-80

Measured: T/C

Ic1ccccc1C[N+]12CN3CN(CN(C3)C1)C2
inactive: dose: 15.0 mg/kg/injection, schedule: Q01DX015 (ip), vehicle: carboxymethylcellulose (CMC) 101 % of control | [1] 92 % of control | [2] 92 % of control | [3] 101 % of control | dose: 100.0 mg/kg/injection, schedule: Q01DX009 (ip), vehicle: acetone 96 % of control | dose: 100.0 mg/kg/injection, schedule: Q04DX003 (ip), vehicle: acetone 100 % of control | [4] 103 % of control | [5] 101 % of control | dose: 200.0 mg/kg/injection, schedule: Q01DX009 (ip), vehicle: acetone 94 % of control | dose: 200.0 mg/kg/injection, schedule: Q04DX003 (ip), vehicle: acetone 100 % of control | [6] 94 % of control | dose: 400.0 mg/kg/injection, schedule: Q04DX003 (ip), vehicle: acetone 93 % of control

CCCCCCCCCCCCCCCCNC(=S)NC1CCCCC1
inactive: [1] 104 % of control | [2] 98 % of control | [3] 100 % of control | [7] 102 % of control | [8] 101 % of control | [4] 94 % of control | [5] 88 % of control | [9] 96 % of control | [10] 97 % of control | dose: 240.0 mg/kg/injection, schedule: Q01DX015 (ip), vehicle: carboxymethylcellulose (CMC) 94 % of control and 102 % of control | [6] 91 % of control | [11] 101 % of control | dose: 480.0 mg/kg/injection, schedule: Q01DX015 (ip), vehicle: carboxymethylcellulose (CMC) 101 % of control

CCOC(=O)c1cnc(SC)nc1Nc1ccc(OC)cc1
inactive: [12] 96 % of control | [13] 95 % of control | dose: 200.0 mg/kg/injection, schedule: Q01DX009 (ip), vehicle: Klucel (hydroxypropylcellulose) (HPC) 91 % of control | [14] 98 % of control | [15] 94 % of control | [16] 90 % of control

Cc1cc(C)c(NC(=O)c2ccc(Cl)cc2Cl)c(C)c1
inactive: dose: 100.0 mg/kg/injection, schedule: Q04DX002 (ip), vehicle: Klucel (hydroxypropylcellulose) (HPC) 95 % of control | dose: 200.0 mg/kg/injection, schedule: Q04DX002 (ip), vehicle: Klucel (hydroxypropylcellulose) (HPC) 106 % of control | dose: 400.0 mg/kg/injection, schedule: Q04DX002 (ip), vehicle: Klucel (hydroxypropylcellulose) (HPC) 95 % of control

CCc1noc(CC)c1CC1=C2CCC3(C)CCC(C)(C)CC3C2(C)CCC1=O (configuration not stated)
inactive: dose: 100.0 mg/kg/injection, schedule: Q01DX001 (ip), vehicle: other 96 % of control | [7] 93 % of control | dose: 200.0 mg/kg/injection, schedule: Q01DX001 (ip), vehicle: other 94 % of control | [9] 91 % of control | dose: 400.0 mg/kg/injection, schedule: Q01DX001 (ip), vehicle: other 97 % of control | [17] 90 % of control

CC(C)N1CSC(=S)N(C(C)C)C1
inactive: dose: 100.0 mg/kg/injection, schedule: Q04DX002 (ip), vehicle: other 89 % of control | dose: 200.0 mg/kg/injection, schedule: Q04DX002 (ip), vehicle: other 100 % of control | dose: 400.0 mg/kg/injection, schedule: Q04DX002 (ip), vehicle: other 107 % of control

CC(C)CC(CC(C)C)NCCOC(=O)c1ccc(N)cc1
inactive: dose: 75.0 mg/kg/injection, schedule: Q01DX001 (ip), vehicle: other 106 % of control | dose: 150.0 mg/kg/injection, schedule: Q01DX001 (ip), vehicle: other 103 % of control

Cc1cc(C)c(B(O)O)c(C)c1
inactive: dose: 100.0 mg/kg/injection, schedule: Q01DX009 (ip), vehicle: saline 100 % of control | [8] 105 % of control | dose: 200.0 mg/kg/injection, schedule: Q01DX009 (ip), vehicle: saline 96 % of control | [10] 100 % of control | dose: 400.0 mg/kg/injection, schedule: Q01DX009 (ip), vehicle: saline 103 % of control | [11] 102 % of control

c1ccc2cc(-c3nc4cccc5c4n3CCC5)ccc2c1
inactive: [7] 97 % of control | [18] 92 % of control | [9] 95 % of control | [19] 89 % of control | [17] 98 % of control | [20] 94 % of control

CCc1ccc(C2=C(Cl)C(=O)C(c3ccc(CC)cc3)=C(Cl)C2=O)cc1
inactive: dose: 10.0 mg/kg/injection, schedule: Q01DX001 (ip), vehicle: carboxymethylcellulose (CMC) 100 % of control | dose: 20.0 mg/kg/injection, schedule: Q01DX001 (ip), vehicle: carboxymethylcellulose (CMC) 100 % of control | dose: 40.0 mg/kg/injection, schedule: Q01DX001 (ip), vehicle: carboxymethylcellulose (CMC) 102 % of control | dose: 80.0 mg/kg/injection, schedule: Q01DX001 (ip), vehicle: carboxymethylcellulose (CMC) 100 % of control | dose: 100.0 mg/kg/injection, schedule: Q01DX001 (ip), vehicle: carboxymethylcellulose (CMC) 88 % of control

Cc1ccc(C)c(-n2nnc3ccccc3c2=O)c1
inactive: [7] 89 % of control | [18] 95 % of control | [9] 92 % of control | [19] 101 % of control | [17] 91 % of control | [20] 96 % of control

C=CCNC(=S)Nc1cc(Cl)ccc1OC
inactive: [12] 90 % of control | [13] 94 % of control | [14] 92 % of control | [15] 86 % of control | [16] 94 % of control

FC(F)(F)c1cccc(NC(=S)NC(Cc2ccccc2)c2ccccc2)c1 (configuration not stated)
inactive: dose: 100.0 mg/kg/injection, schedule: Q04DX002 (ip), vehicle: gum acacia 104 % of control | dose: 200.0 mg/kg/injection, schedule: Q04DX002 (ip), vehicle: gum acacia 98 % of control | dose: 400.0 mg/kg/injection, schedule: Q04DX002 (ip), vehicle: gum acacia 92 % of control

CCCCCCCCCCCCCCCCC/C=N\N=C(N)N
inactive: dose: 15.0 mg/kg/injection, schedule: Q01DX Z (ip), vehicle: carboxymethylcellulose (CMC) 101 % of control | dose: 30.0 mg/kg/injection, schedule: Q01DX Z (ip), vehicle: carboxymethylcellulose (CMC) 96 % of control | dose: 60.0 mg/kg/injection, schedule: Q01DX Z (ip), vehicle: carboxymethylcellulose (CMC) 90 % of control | dose: 60.0 mg/kg/injection, schedule: Q01DX Z (oral), vehicle: carboxymethylcellulose (CMC) 106 % of control | dose: 120.0 mg/kg/injection, schedule: Q01DX Z (ip), vehicle: carboxymethylcellulose (CMC) 104 % of control | dose: 120.0 mg/kg/injection, schedule: Q01DX Z (oral), vehicle: carboxymethylcellulose (CMC) 110 % of control | dose: 240.0 mg/kg/injection, schedule: Q01DX Z (oral), vehicle: carboxymethylcellulose (CMC) 118 % of control | dose: 480.0 mg/kg/injection, schedule: Q01DX Z (oral), vehicle: carboxymethylcellulose (CMC) 118 % of control

CC1(C)N=C(N)N=C(N)N1c1cccc(CCCCc2ccccc2)c1
inactive: dose: 5.0 mg/kg/injection, schedule: Q01DX001 (ip), vehicle: saline 86 % of control | dose: 10.0 mg/kg/injection, schedule: Q01DX001 (ip), vehicle: saline 92 % of control | dose: 20.0 mg/kg/injection, schedule: Q01DX001 (ip), vehicle: saline 103 % of control | dose: 25.0 mg/kg/injection, schedule: Q01DX001 (ip), vehicle: saline with Tween-80 97 % of control | dose: 40.0 mg/kg/injection, schedule: Q01DX001 (ip), vehicle: saline 92 % of control | dose: 50.0 mg/kg/injection, schedule: Q01DX001 (ip), vehicle: saline with Tween-80 104 % of control | dose: 50.0 mg/kg/injection, schedule: Q01DX001 (ip), vehicle: saline 112 % of control | dose: 100.0 mg/kg/injection, schedule: Q01DX001 (ip), vehicle: saline with Tween-80 106 % of control
